Laboratory results published in US20260262643A1, “HERBICIDAL BENZOXAZINES” (FMC CORPORATION, priority 2022, published 2026).

Assays:
[1] = tested on: ducksalad; assay: Test D flooded paddy test; type: in vivo, Heteranthera limosa; conditions: 250 g ai/ha, applied to paddy water, visual rating after 13 to 14 days, scale 0 to 100 (0 no effect, 100 complete control)
Outline: (§1)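 Visual ratings from 0, meaning no effect, to 100, meaning complete control, were assigned against untreated controls 13 to 14 days after compounds were added to the floodwater of pots kept 3 cm deep, with plants at the 2-leaf stage.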

[2] = tested on: oat, wild; assay: Test C preemergence; type: in vivo, Avena fatua; conditions: 0 to 100 scale (0 no effect, 100 complete control); for Oat, Wild plant response rating: preemergence
Outline: (§2)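 Seeds sown in loam soil–sand blend received a directed preemergence soil spray of test chemical in non-phytotoxic solvent with surfactant; postemergence plants (2–10 cm, one- to two-leaf stage) were sprayed with the same formulation. Greenhouse-held 10 days, then visually rated for injury versus untreated controls, 0 (no effect) to 100 (complete control).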

[3] = tested on: wheat; assay: Test C preemergence; type: in vivo, Triticum aestivum; conditions: 0 to 100 scale (0 no effect, 100 complete control); for Wheat plant response rating: preemergence
Outline: as §2

[4] = tested on: kochia; assay: Test C preemergence; type: in vivo, Bassia scoparia; conditions: 0 to 100 scale (0 no effect, 100 complete control); for Kochia plant response rating: preemergence
Outline: as §2

[5] = tested on: pigweed, palmer; assay: Test C postemergence; type: in vivo, Amaranthus palmeri; conditions: 10 days
Outline: as §2

[6] = tested on: pigweed, palmer; assay: Test C preemergence; type: in vivo, Amaranthus palmeri; conditions: 0 to 100 scale (0 no effect, 100 complete control); for Pigweed, Palmer plant response rating: preemergence
Outline: as §2

[7] = tested on: barnyardgrass; assay: Test C postemergence; type: in vivo, Echinochloa crusgalli; conditions: 10 days
Outline: as §2

[8] = tested on: blackgrass; assay: Test C preemergence; type: in vivo, Alopecurus myosuroides; conditions: 0 to 100 scale (0 no effect, 100 complete control); for Blackgrass plant response rating: preemergence
Outline: as §2

[9] = tested on: ryegrass, Italian; assay: Test C postemergence; type: in vivo, Lolium multiflorum; conditions: 10 days
Outline: as §2

[10] = tested on: green foxtail; assay: Test C preemergence; type: in vivo, Setaria viridis; conditions: 0 to 100 scale (0 no effect, 100 complete control); for Foxtail, Green plant response rating: preemergence
Outline: as §2

[11] = tested on: ragweed; assay: Test C postemergence; type: in vivo, Ambrosia artemisiifolia; conditions: 10 days
Outline: as §2

[12] = tested on: wheat; assay: Test C postemergence; type: in vivo, Triticum aestivum; conditions: 10 days
Outline: as §2

[13] = tested on: ragweed; assay: Test C preemergence; type: in vivo, Ambrosia artemisiifolia; conditions: 0 to 100 scale (0 no effect, 100 complete control); for Ragweed plant response rating: preemergence
Outline: as §2

[14] = tested on: kochia; assay: Test C postemergence; type: in vivo, Bassia scoparia; conditions: 10 days
Outline: as §2

[15] = tested on: corn; assay: Test C postemergence; type: in vivo, Zea mays; conditions: 10 days
Outline: as §2

[16] = tested on: rice; assay: Test D flooded paddy test; type: in vivo, Oryza sativa; conditions: 250 g ai/ha, applied to paddy water, visual rating after 13 to 14 days, scale 0 to 100 (0 no effect, 100 complete control)
Outline: as §1

[17] = tested on: soybean; assay: Test C postemergence; type: in vivo, Glycine max; conditions: 10 days
Outline: as §2

[18] = tested on: oat, wild; assay: Test C postemergence; type: in vivo, Avena fatua; conditions: 10 days
Outline: as §2

[19] = tested on: green foxtail; assay: Test C postemergence; type: in vivo, Setaria viridis; conditions: 10 days
Outline: as §2

[20] = tested on: barnyardgrass; assay: Test C preemergence; type: in vivo, Echinochloa crusgalli; conditions: 0 to 100 scale (0 no effect, 100 complete control); for Barnyardgrass plant response rating: preemergence
Outline: as §2

[21] = tested on: galium; assay: Test C postemergence; type: in vivo, Galium aparine; conditions: postemergence, 10 days
Outline: as §2

[22] = tested on: barnyardgrass; assay: Test D flooded paddy test; type: in vivo, Echinochloa crus-galli; conditions: 250 g ai/ha, applied to paddy water, visual rating after 13 to 14 days, scale 0 to 100 (0 no effect, 100 complete control)
Outline: as §1

[23] = tested on: corn; assay: Test C preemergence; type: in vivo, Zea mays; conditions: 0 to 100 scale (0 no effect, 100 complete control); for Corn plant response rating: preemergence
Outline: as §2

[24] = tested on: horseweed; assay: Test C postemergence; type: in vivo, Erigeron canadensis; conditions: 10 days
Outline: as §2

[25] = tested on: soybean; assay: Test C preemergence; type: in vivo, Glycine max; conditions: 0 to 100 scale (0 no effect, 100 complete control); for Soybean plant response rating: preemergence
Outline: as §2

[26] = tested on: sedge, umbrella; assay: Test D flooded paddy test; type: in vivo, Cyperus difformis; conditions: 250 g ai/ha, applied to paddy water, visual rating after 13 to 14 days, scale 0 to 100 (0 no effect, 100 complete control)
Outline: as §1

[27] = tested on: blackgrass; assay: Test C postemergence; type: in vivo, Alopecurus myosuroides; conditions: 10 days
Outline: as §2

[28] = tested on: ryegrass, Italian; assay: Test C preemergence; type: in vivo, Lolium multiflorum; conditions: 0 to 100 scale (0 no effect, 100 complete control); for Ryegrass, Italian plant response rating: preemergence
Outline: as §2

[29] = 125 g ai/ha, postemergence, 0 to 100 scale, 0 no effect, 100 complete control
[30] = 500 g ai/ha, postemergence, 0 to 100 scale (0 no effect, 100 complete control)
[31] = 125 g ai/ha, 0 to 100 scale, 0 no effect, 100 complete control
[32] = Preemergence, 500 g ai/ha, visual rating after 10 days
[33] = Postemergence, 500 g ai/ha, visual 0 to 100 scale (0 no effect, 100 complete control)

CCc1ncn(-c2ccc(C)c(C(=O)N3CC(C(F)(F)F)Oc4c(Cl)cccc43)c2)n1 (racemic) [Compound 290]
Plant response rating, Ducksalad (Flood) [1]: 50 | Oat, Wild plant response rating ([2]; 500 g ai/ha): 90 | Oat, Wild plant response rating ([2]; Test C, 125 g ai/ha): 70 | Wheat plant response rating ([3]; 500 g ai/ha): 50 | Wheat plant response rating ([3]; Test C, 125 g ai/ha): 30 | Kochia plant response rating ([4]; 500 g ai/ha): 90 | Kochia plant response rating ([4]; Test C, 125 g ai/ha): 90 | Plant response rating, Pigweed, Palmer [5, 29]: 100 | Plant response rating, Pigweed, Palmer [5, 30]: 100 | Pigweed, Palmer plant response rating ([6]; 500 g ai/ha): 100 | Pigweed, Palmer plant response rating ([6]; Test C, 125 g ai/ha): 100 | Plant response rating, Barnyardgrass [7, 29]: 50 | Plant response rating, Barnyardgrass [7, 30]: 90 | Blackgrass plant response rating ([8]; 500 g ai/ha): 70 | Blackgrass plant response rating ([8]; Test C, 125 g ai/ha): 70 | Plant response rating, Ryegrass, Italian [9, 29]: 50 | Plant response rating, Ryegrass, Italian [9, 30]: 90 | Foxtail, Green plant response rating ([10]; 500 g ai/ha): 100 | Foxtail, Green plant response rating ([10]; Test C, 125 g ai/ha): 100 | Plant response rating, Ragweed [11, 29]: 70 | Plant response rating, Ragweed [11, 30]: 80 | Plant response rating, Wheat [12, 29]: 30 | Plant response rating, Wheat [12, 30]: 60 | Ragweed plant response rating ([13]; 500 g ai/ha): 70 | Ragweed plant response rating ([13]; Test C, 125 g ai/ha): 60 | Plant response rating, Kochia [14, 29]: 80 | Plant response rating, Kochia [14, 30]: 90 | Plant response rating, Corn [15, 29]: 30 | Plant response rating, Corn [15, 30]: 30 | Plant response rating, Rice (Flood) [16]: 10 | Plant response rating, Soybean [17, 29]: 100 | Plant response rating, Soybean [17, 30]: 100 | Plant response rating, Oat, Wild [18, 29]: 10 | Plant response rating, Oat, Wild [18, 30]: 90 | Plant response rating, Foxtail, Green [19, 29]: 80 | Plant response rating, Foxtail, Green [19, 30]: 90 | Barnyardgrass plant response rating ([20]; 500 g ai/ha): 100 | Barnyardgrass plant response rating ([20]; Test C, 125 g ai/ha): 90 | Plant response rating, Galium [21, 31]: 100 | Plant response rating, Galium ([21]; 500 g ai/ha, 0 to 100 scale (0 no effect, 100 complete control)): 100 | Plant response rating, Barnyardgrass (Flood) [22]: 10 | Corn plant response rating ([23]; 500 g ai/ha): 40 | Corn plant response rating ([23]; Test C, 125 g ai/ha): 30 | Plant response rating, Horseweed [24, 29]: 40 | Plant response rating, Horseweed [24, 30]: 40 | Soybean plant response rating ([25]; 500 g ai/ha): 80 | Soybean plant response rating ([25]; Test C, 125 g ai/ha): 90 | Plant response rating, Sedge, Umbrella (Flood) [26]: 85 | Plant response rating, Blackgrass [27, 29]: 10 | Plant response rating, Blackgrass [27, 30]: 90 | Ryegrass, Italian plant response rating ([28]; 500 g ai/ha): 100 | Ryegrass, Italian plant response rating ([28]; Test C, 125 g ai/ha): 90

Cc1ccc(-n2cnc(C(C)(F)F)n2)cc1C(=O)N1C[C@H](C)Oc2c(Cl)cccc21 [Compound 248]
Plant response rating, Ducksalad (Flood) [1]: 0 | Plant response rating, Oat, Wild [2, 32]: 90 | Oat, Wild plant response rating ([2]; Test C, 125 g ai/ha): 40 | Plant response rating, Wheat [3, 32]: 90 | Wheat plant response rating ([3]; Test C, 125 g ai/ha): 40 | Plant response rating, Kochia [4, 32]: 100 | Kochia plant response rating ([4]; Test C, 125 g ai/ha): 100 | Plant response rating, Pigweed, Palmer [5, 29]: 90 | Plant response rating, Pigweed, Palmer [5, 33]: 100 | Plant response rating, Pigweed, Palmer [6, 32]: 100 | Pigweed, Palmer plant response rating ([6]; Test C, 125 g ai/ha): 100 | Plant response rating, Barnyardgrass [7, 29]: 50 | Plant response rating, Barnyardgrass [7, 33]: 70 | Plant response rating, Blackgrass [8, 32]: 70 | Blackgrass plant response rating ([8]; Test C, 125 g ai/ha): 30 | Plant response rating, Ryegrass, Italian [9, 29]: 90 | Plant response rating, Ryegrass, Italian [9, 33]: 100 | Plant response rating, Foxtail, Green [10, 32]: 100 | Foxtail, Green plant response rating ([10]; Test C, 125 g ai/ha): 100 | Plant response rating, Ragweed [11, 29]: 90 | Plant response rating, Ragweed [11, 33]: 90 | Plant response rating, Wheat [12, 29]: 30 | Plant response rating, Wheat [12, 33]: 90 | Plant response rating, Ragweed [13, 32]: 90 | Ragweed plant response rating ([13]; Test C, 125 g ai/ha): 80 | Plant response rating, Kochia [14, 29]: 90 | Plant response rating, Kochia [14, 33]: 100 | Plant response rating, Corn [15, 29]: 60 | Plant response rating, Corn [15, 33]: 70 | Plant response rating, Rice (Flood) [16]: 0 | Plant response rating, Soybean [17, 29]: 100 | Plant response rating, Soybean [17, 33]: 100 | Plant response rating, Oat, Wild [18, 29]: 60 | Plant response rating, Oat, Wild [18, 33]: 70 | Plant response rating, Foxtail, Green [19, 29]: 90 | Plant response rating, Foxtail, Green [19, 33]: 90 | Plant response rating, Barnyardgrass [20, 32]: 100 | Barnyardgrass plant response rating ([20]; Test C, 125 g ai/ha): 100 | Plant response rating, Galium [21, 31]: 100 | Plant response rating, Barnyardgrass (Flood) [22]: 0 | Plant response rating, Corn [23, 32]: 50 | Corn plant response rating ([23]; Test C, 125 g ai/ha): 20 | Plant response rating, Horseweed [24, 29]: 10 | Plant response rating, Horseweed [24, 33]: 40 | Plant response rating, Soybean [25, 32]: 100 | Soybean plant response rating ([25]; Test C, 125 g ai/ha): 60 | Plant response rating, Sedge, Umbrella (Flood) [26]: 0 | Plant response rating, Blackgrass [27, 29]: 90 | Plant response rating, Blackgrass [27, 33]: 100 | Plant response rating, Ryegrass, Italian [28, 32]: 100 | Ryegrass, Italian plant response rating ([28]; Test C, 125 g ai/ha): 90
